Reference: US20250230131A1, “NOVEL IONIZABLE LIPID AND LIPID NANOPARTICLE COMPOSITION USING SAME” (MediciBIO Co., Ltd, priority 2022, published 2025)

Columns and labels:
[1] = Size (diameter) and PDI of lipid nanoparticles by Dynamic Light Scattering; format: physicochemical; details: lipid nanoparticles of the ionizable lipid; diluted with PBS to mRNA 1 μg/mL; DLS
Method: (§1) The size and surface charge of lipid nanoparticles according to the ionizable lipid prepared in Example 1 were measured. To measure the size of the lipid nanoparticles, dilution was conducted using PBS to reach the concentration of mRNA contained in each lipid nanoparticle to 1 μg/mL, and Dynamic Light Scattering (DLS) of Malvern Zetasizer Nano (Malvern Instruments, UK) was applied to measure the diameter and a polydispersity index (hereinafter referred to as PDI) of lipid nanoparticles. In addition, in order to measure the surface charge of lipid nanoparticles, dilution was conducted using PBS to reach the concentration of mRNA contained in each lipid nanoparticle to 1 μg/mL, and the surface charge (zeta potential) was measured using the same equipment as above.

[2] = Surface charge (zeta potential) of lipid nanoparticles; format: physicochemical; details: diluted with PBS to mRNA 1 μg/mL
Method: as §1

[3] = Gene encapsulation efficiency, Quant-iT Ribogreen RNA Reagent and Kit; format: physicochemical; details: lipid nanoparticles, TE buffer vs 2% Triton-TE buffer
Method: To determine a gene encapsulation efficiency of lipid nanoparticles, the Quant-iT™ Ribogreen™ RNA Reagent and Kit was used. A stock solution for the calibration curve was prepared by taking 5 μL of the ribosomal RNA standard (100 μg/mL in TE buffer) and diluting it with either 245 μL of TE buffer or 0.4% Triton-TE buffer, respectively. Aliquots of 2, 5, 10, 25, and 50 μL of the stock solution were taken, diluted with TE buffer or 0.4% Triton-TE buffer to achieve a total volume of 100 μL, and then mixed with 100 μL of Quant-iT™ Ribogreen™ RNA Reagent; the fluorescence intensity (excitation 475 nm and emission 500˜550 nm) was measured to create a calibration curve. A volume of 5 μL of the nanoparticle solution prepared in Example 2 was taken and diluted with 245 μL of TE buffer (10 mM Tris-HCl, 1 mM EDTA, pH 7.5 in DEPC-treated water). After 50 μL of TE buffer or 50 μL of 2% Triton-TE buffer was added to 50 μL of the diluted nanoparticle solution, respectively, the mixture was incubated at 37° C. for about 10 minutes. Afterwards, 40 μL of each mixture was transferred to a microplate, and 60 μL of TE buffer and 100 μL of Quant-iT™ Ribogreen™ RNA Reagent were added sequentially to measure the fluorescence intensity. After calculating the gene dosage (T0) in the TE buffer and the gene dosage (T2) in the 2% Triton-TE buffer by substituting the measured fluorescence intensity into the calibration curve, the gene encapsulation efficiency was calculated using the following Mathematical Equation 1.

[4] = test system: mice of the C57BL/6 lineage; test: Gene delivery efficiency in vivo, intravenous injection, liver luciferase expression; details: C57BL/6 mice, after 4 hours
Method: (§2) In order to identify the gene delivery efficacy and distribution of lipid nanoparticles in vivo, lipid nanoparticles were injected into 7-week-old mice of the C57BL/6 lineage either intravenously or intramuscularly in the thigh. The liver was extracted in the case of intravenous injection and the organs including the femoral muscle were extracted in the case of intramuscular injection by sacrificing the mice after 4 hours.
(§3) To determine the level of luciferase expression in tissue samples, the tissue sections were weighed and transferred to a tube containing 3 mm metal beads, and a homogenized by adding 500 μl of Glo-Lysis Buffer (Promega) per 50 mg of tissue. The supernatant from the centrifuged homogenates was collected and diluted with the Glo-Lysis Buffer to an appropriate ratio. The diluted homogenates and the Steady-Glo Luciferase Assay solution were then mixed in a 1:1 ratio, with 50 μl of each. After a 5-minute incubation, the luminescence values of luciferase were measured using the same method as described in Example 3-1, and the expression levels (ng/g tissue) of luciferase were calculated.

[5] = test system: mice of the C57BL/6 lineage; test: Gene delivery efficiency in vivo, intramuscular injection in the thigh, muscle luciferase expression; details: femoral muscle, C57BL/6 mice, after 4 hours
Method: as §2, §3

HeLa cells = test: Intracellular gene delivery efficacy of FLuc mRNA-LNP (luciferase expression); format: cell-based, human; details: 0.25 μg/ml encapsulated FLuc mRNA, 6 hours
Method: To determine the intracellular gene delivery efficacy of lipid nanoparticles, lipid nanoparticles encapsulated with FLuc mRNA(Fluc mRNA-LNP) were used. To evaluate the gene delivery efficacy, HeLa cells (Korea Cell Line Bank, Seoul), human cervical cancer cell lines expressing low-density lipoprotein (LDL) receptors on the cell surface, were used, and cultured with the MEM medium containing 10% fetal bovine serum and penicillin/streptomycin at 37° C. in the presence of 5% CO2. HeLa cell lines were seeded at 2×10^4 cells per well in a 96-well plate, and after 16˜24 hours, the cells were treated with lipid nanoparticles at a concentration of 0.25 μg/ml based on encapsulated mRNA, in a total volume of 100 μl MEM medium per well in the absence or the presence of 10% fetal bovine serum (FBS).
To measure the expression of intracellular luciferase after FLuc mRNA delivery by lipid nanoparticles, the cells were washed with PBS after 6 hours of treatment. Then, and 100 μl of Glo-Lysis Buffer (Promega, WI, USA) was added to lyse the cells at room temperature for 5 minutes. The lysed cells were added with 100 μl of Steady-Glo™ Luciferase Assay solution (Promega) in a 1:1 ratio, left at room temperature for 5 minutes, and then transferred to a 96-well white plate. Luminescent values were detected using a GloMax Discover microplate reader (Promega). Recombinant luciferase (Promega) was used as the standard material to generate the calibration curve, which was used to determine the luciferase concentration (pg/ml) in the samples.

| Compound | PDI [1] | Particle size [1] | Surface Charge [2] | Gene encapsulation efficiency [3] | Luciferase expression level (Mean ± SD) [4] | Luciferase expression level (Mean ± SD) [5] | Luciferase expression level (Mean ± SD) (HeLa cells; 10% FBS) | Luciferase expression level (Mean ± SD) (HeLa cells; w/o FBS) |
| --- | --- | --- | --- | --- | --- | --- | --- | --- |
| CCCCCCCCC(CCCCCC)C(=O)OCCCCCCN(CCCCCCOC(=O)C(CCCCCC)CCCCCCCC)CCCn1ccnc1C (centres unmarked) [Compound 5, ((3-(2-methyl-1H-imidazol-1-yl)propyl)azanediyl)bis(hexane-6,1-diyl) bis(2-hexyldecanoate)] | 0.08 | 104 nm | +19.9 mV | 93.5% | 2,582 ± 745 ng/g | 651 ± 158 ng/g | – | – |
| CCCCCCCCC(CCCCCC)C(=O)OCCCCCCN(CCCCCCOC(=O)C(CCCCCC)CCCCCCCC)CCCn1cc(C)nc1C (centres unmarked) [Compound 6, ((3-(2,4-dimethyl-1H-imidazol-1-yl)propyl)azanediyl)bis(hexane-6,1-diyl)bis(2-hexyldecanoate)] | – | – | – | – | 1,172 ± 99 ng/g | 358 ± 74 ng/g | – | – |
| CCCCCCCCC(CCCCCC)C(=O)OCCCCCCN(CCCCCCOC(=O)C(CCCCCC)CCCCCCCC)Cc1ccc(N)cc1 (centres unmarked) [Compound 3, ((4-aminobenzyl)azanediyl)bis(hexane-6,1-diyl) bis(2-hexyldecanoate)] | 0.18 | 78 nm | −1.4 mV | 93.8% | – | – | – | – |

Continued, in another order:

| PDI [1] | Particle size [1] | Surface Charge [2] | Gene encapsulation efficiency [3] | Compound | Luciferase expression level (Mean ± SD) [4] | Luciferase expression level (Mean ± SD) [5] | Luciferase expression level (Mean ± SD) (HeLa cells; 10% FBS) | Luciferase expression level (Mean ± SD) (HeLa cells; w/o FBS) |
| --- | --- | --- | --- | --- | --- | --- | --- | --- |
| 0.09 | 121 nm | +29.1 mV | 99.7% | CCCCCCCCC(CCCCCC)C(=O)OCCCCCCN(CCCCCCOC(=O)C(CCCCCC)CCCCCCCC)CCC1CCNCC1 (centres unmarked) [Compound 1, ((2-(piperidin-4-yl)ethyl)azanediyl)bis(hexane-6,1-diyl) bis(2-hexyldecanoate)] | – | – | 16,060 ± 102 pg/ml | 16,685 ± 646 pg/ml |
| 0.13 | 84 nm | +2.0 mV | 78.2% | CCCCCCCCC(CCCCCC)C(=O)OCCCCCCN(CCCCCCOC(=O)C(CCCCCC)CCCCCCCC)CCc1ccc(N)nc1 (centres unmarked) [Compound 4, ((2-(6-aminopyridin-3-yl)ethyl)azanediyl)bis(hexane-6,1-diyl) bis(2-hexyldecanoate)] | 6,844 ± 2,052 ng/g | – | – | – |
| 0.12 | 106 nm | +28.1 mV | 94.9% | CCCCCCCCC(CCCCCC)C(=O)OCCCCCCN(CCCCCCOC(=O)C(CCCCCC)CCCCCCCC)CCN1CCNCC1 (centres unmarked) [Compound 2, ((2-(piperazin-1-yl)ethyl)azanediyl)bis(hexane-6,1-diyl) bis(2-hexyldecanoate)] | – | – | 8,492 ± 2,375 pg/ml | 15,270 ± 2,273 pg/ml |
